Measurements: ChEMBL document CHEMBL5728630, “Aryl, heteroaryl, and heterocyclic pharmaceutical compounds for treatment of medical disorders” (2021)
pIC50: −log10 of the molar value.

These molecules were tested against Complement factor D (Homo sapiens, UniProt P00746) (assay: Factor D Assay: Human Factor D (purified from human serum, Complement Technology, Inc.) at 80 nM final concentration is incubated with test compound at various concentrations for 5 min at room temperature in 50 mM Tris, 1M NaCl, pH 7.5. A synthetic substrate Z-L-Lys-SBz and DTNB (Ellman's reagent) are added to final concentrations of 100 μM each. Absorbance at 405 nm (A405) is recorded at 30 second intervals for 30 min using a microplate spectrophotometer. IC50 values are calculated by nonlinear regression of complement Factor D reaction rates as a function of test compound concentration.).
Sequence of Complement factor D (P00746 whole entry): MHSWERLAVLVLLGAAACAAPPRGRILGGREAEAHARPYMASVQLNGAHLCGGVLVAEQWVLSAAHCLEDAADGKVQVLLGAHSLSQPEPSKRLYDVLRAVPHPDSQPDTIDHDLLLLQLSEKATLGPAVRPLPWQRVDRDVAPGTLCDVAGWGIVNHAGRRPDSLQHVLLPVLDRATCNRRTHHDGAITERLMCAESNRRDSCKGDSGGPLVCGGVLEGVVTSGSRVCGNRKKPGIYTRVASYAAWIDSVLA

Structure (SMILES)	pIC50
CC(=O)c1nn(CC(=O)N2[C@H](C(=O)Nc3cccc(-c4ccccc4Cl)c3F)C[C@@]3(C)C[C@@H]23)c2c(C)cc(-c3cnc(C)nc3)cc12	> 6.00
Cc1ncc(-c2cc(C)c3c(c2)c(C(=O)N2CC4(CCC4)C2)nn3CC(=O)N2[C@H](C(=O)Nc3nc(Br)ccc3C)C[C@@]3(C)C[C@@H]23)cn1	< 5.00
CC[C@@]12C[C@@H](C(=O)Nc3nc(Br)ccc3C)N(C(=O)Cn3nc(C(C)=O)c4cc(-c5cnc(C)nc5)ncc43)[C@@H]1C2	> 6.00
CC(=O)C[C@@]12C[C@@H](C(=O)Nc3nc(Br)ccc3C)N(C(=O)Cn3nc(C(C)=O)c4cc(-c5cnc(C)nc5)ncc43)[C@@H]1C2	> 6.00
COCc1ccc(Br)nc1NC(=O)[C@@H]1C[C@@]2(CN(C)C)C[C@H]2N1C(=O)Cn1nc(C(C)=O)c2cc(-c3cnc(C)nc3)ccc21	> 6.00
C#CC(C)(C)NC(=O)c1nn(CC(=O)N2[C@H](C(=O)Nc3nc(Br)ccc3C)C[C@@]3(C)C[C@@H]23)c2ccc(-c3cnc(C)nc3)cc12	< 5.00
CCCCCCNC(=O)[C@@H]1C[C@@]2(C)C[C@H]2N1C(=O)Cn1nc(C(C)=O)c2cc(-c3cnc(C)nc3)cc(C)c21	> 6.00
COCc1ccc(Br)nc1NC(=O)[C@@H]1C[C@@]2(C)C[C@H]2N1C(=O)Cn1nc(C(C)=O)c2cc(-c3cnc(C)nc3)cc(COC)c21	> 6.00
CC(=O)c1nn(CC(=O)N2[C@H](C(=O)NCCN3CCCCC3)C[C@@]3(C)C[C@@H]23)c2c(C)cc(-c3cnc(C)nc3)cc12	< 5.00
CC(=O)c1nn(CC(=O)N2[C@H](C(=O)NCc3ccc(F)cc3)C[C@@]3(C)C[C@@H]23)c2c(C)cc(-c3cnc(C)nc3)cc12	> 6.00
CC(=O)c1nn(CC(=O)N2[C@H](C(=O)Nc3nc(Br)ccc3F)C[C@@]3(C)C[C@@H]23)c2cnc(-c3cnc(C)nc3)cc12	> 6.00
CC(=O)c1nn(CC(=O)N2[C@H](C(=O)Nc3nc(Br)ccc3C)C[C@@]3(C)C[C@@H]23)c2c(C)cc(-c3cnc(C4(O)COC4)nc3)cc12	> 6.00
C=CCCS(=O)(=O)NC[C@@]12C[C@@H](C(=O)Nc3nc(Br)ccc3C=C)N(C(=O)Cn3nc(C(C)=O)c4cc(-c5cnc(C)nc5)ccc43)[C@@H]1C2	> 6.00
CC(=O)c1nn(CC(=O)N2[C@H](C(=O)Nc3nc(Br)ccc3C)C[C@@]3(CF)C[C@@H]23)c2c(C)cc(-c3cnc(C)nc3)cc12	> 6.00
CC(=O)c1nn(CC(=O)N2[C@H](C(=O)Nc3nc(Br)ccc3CN3CCn4c(nnc4C(F)(F)F)C3)C[C@@]3(C)C[C@@H]23)c2cnc(-c3cnc(C)nc3)cc12	> 6.00
CC(=O)c1nn(CC(=O)N2[C@H](C(=O)Nc3nc(Br)ccc3C3COC(=O)O3)C[C@@]3(C)C[C@@H]23)c2cnc(-c3cnc(C)nc3)cc12 (stereo partly specified)	> 6.00
CC(=O)c1nn(CC(=O)N2[C@H](C(=O)Nc3nc(Br)ccc3C)C[C@@]3(CC#N)C[C@@H]23)c2cnc(-c3cnc(C)nc3)cc12	> 6.00
CC(=O)c1nn(CC(=O)N2[C@H](C(=O)Nc3nc(Br)ccc3C)C[C@@]3(C)C[C@@H]23)c2ccc(-c3cnc(CN4CCCC(F)(F)C4)nc3)cc12	> 6.00
CC(=O)c1nn(CC(=O)N2[C@H](C(=O)Nc3nc(Br)ccc3C)C[C@@]3(CN4CC(F)(F)C4)C[C@@H]23)c2cnc(-c3cnc(C)nc3)cc12	> 6.00
CC(=O)c1nn(CC(=O)N2[C@H](C(=O)NCc3ncccn3)C[C@@]3(C)C[C@@H]23)c2c(C)cc(-c3cnc(C)nc3)cc12	> 6.00
CC(=O)c1nn(CC(=O)N2[C@H](C(=O)NCC3CC3)C[C@@]3(C)C[C@@H]23)c2c(C)cc(-c3cnc(C)nc3)cc12	> 6.00

Structure (SMILES)	pIC50
CCCNC(=O)[C@@H]1C[C@@]2(C)C[C@H]2N1C(=O)Cn1nc(C(C)=O)c2cc(-c3cnc(C)nc3)ccc21	> 6.00
CC(=O)c1nn(CC(=O)N2[C@H](C(=O)Nc3nc(Br)ccc3C(O)CO)C[C@@]3(C)C[C@@H]23)c2cnc(-c3cnc(C)nc3)cc12 (stereo partly specified)	> 6.00
COc1ccccc1CNC(=O)[C@@H]1C[C@@]2(C)C[C@H]2N1C(=O)Cn1nc(C(C)=O)c2cc(-c3cnc(C)nc3)cc(C)c21	> 6.00
CC(=O)c1nn(CC(=O)N2[C@H](C(=O)NCc3cncnc3)C[C@@]3(C)C[C@@H]23)c2c(C)cc(-c3cnc(C)nc3)cc12	> 6.00
CC(=O)c1nn(CC(=O)N2[C@H](C(=O)N[C@@H](C)c3ccccc3)C[C@@]3(C)C[C@@H]23)c2c(C)cc(-c3cnc(C)nc3)cc12	> 6.00
CC(=O)c1nn(CC(=O)N2[C@H](C(=O)NCc3cccc(Cl)c3F)C[C@@]3(C)C[C@@H]23)c2c(C)cc(-c3cnc(C)nc3)cc12	> 6.00
CC(=O)c1nn(CC(=O)N2[C@H](C(=O)Nc3nc(Br)ccc3C)C[C@@]3(C)C[C@@H]23)c2c(C3CC3)nc(-c3cnc(C)nc3)cc12	> 6.00
CC(=O)c1nn(CC(=O)N2[C@H](C(=O)Nc3nc(Br)ccc3C)C[C@@]3(CNCc4ccccc4)C[C@@H]23)c2c(C)cc(-c3cnc(C)nc3)cc12	> 6.00
COc1ccc(CNC(=O)[C@@H]2C[C@@]3(C)C[C@H]3N2C(=O)Cn2nc(C(C)=O)c3cc(-c4cnc(C)nc4)cc(C)c32)cc1	> 6.00
CC(=O)c1nn(CC(=O)N2[C@@H](C(=O)Nc3nc(Br)ccc3C)C[C@@]3(CC(C)C)C[C@@H]23)c2cnc(-c3cnc(C)nc3)cc12	< 5.00
Cc1ncc(-c2ccc3c(c2)c(C(=O)NC2CC2)nn3CC(=O)N2[C@H](C(=O)Nc3nc(Br)ccc3C)C[C@@]3(C)C[C@@H]23)cn1	> 6.00
CC(=O)c1nn(CC(=O)N2[C@H](C(=O)Nc3nc(Br)ccc3C)C[C@@]3(CN4CC(O)C4)C[C@@H]23)c2cnc(-c3cnc(C)nc3)cc12	> 6.00
CC(=O)c1nn(CC(=O)N2[C@H](C(=O)NCCC3CCCCC3)C[C@@]3(C)C[C@@H]23)c2c(C)cc(-c3cnc(C)nc3)cc12	> 6.00
CC(=O)c1nn(CC(=O)N2[C@H](C(=O)NCCc3ccccc3)C[C@@]3(C)C[C@@H]23)c2c(C)cc(-c3cnc(C)nc3)cc12	> 6.00
CC(=O)c1nn(CC(=O)N2[C@H](C(=O)Nc3nc(C(F)(F)F)ccc3C)C[C@@]3(C)C[C@@H]23)c2c(C)nc(-c3cnc(C)nc3)cc12	> 6.00
C=CCNC(=O)c1nn(CC(=O)N2[C@H](C(=O)Nc3nc(Br)ccc3C)C[C@@]3(C)C[C@@H]23)c2ccc(-c3cnc(C)nc3)cc12	> 6.00
CC(=O)c1nn(CC(=O)N2[C@H](C(=O)Nc3nc(Br)ccc3C)C[C@@]3(CNCC(F)(F)F)C[C@@H]23)c2c(C)cc(-c3cnc(C)nc3)cc12	> 6.00
CC(=O)c1nn(CC(=O)N2[C@H](C(=O)Nc3nc(Br)ccc3C)C[C@@]3(CNC(=O)C4CCCC4(F)F)C[C@@H]23)c2ccc(-c3cnc(C)nc3)cc12 (stereo partly specified)	> 6.00
CC(=O)c1nn(CC(=O)N2[C@H](C(=O)Nc3nc(Br)ccc3C)C[C@@]3(CN4CC(O)C4)C[C@@H]23)c2c(C)cc(-c3cnc(C)nc3)cc12	> 6.00
CC(=O)c1nn(CC(=O)N2[C@H](C(=O)Nc3nc(Br)ccc3CCCF)C[C@@]3(C)C[C@@H]23)c2cnc(-c3cnc(C)nc3)cc12	> 6.00
CC(=O)c1nn(CC(=O)N2[C@H](C(=O)Nc3cccc(Br)n3)C[C@@]3(C)C[C@@H]23)c2c(C)cc(-c3cnc(C)nc3)cc12	> 6.00

Structure (SMILES)	pIC50
CC(=O)c1nn(CC(=O)N2[C@H](C(=O)Nc3nc(Br)ccc3C)C[C@@]3(C)C[C@@H]23)c2ccc(-c3cnc(C)nc3)cc12 [VEMIRCOPAN]	< 5.00
CC(=O)c1nn(CC(=O)N2[C@H](C(=O)Nc3nc(Br)ccc3C)C[C@@]3(CN4CC(C)(C)C4)C[C@@H]23)c2c(C)nc(-c3cnc(C)nc3)cc12	> 6.00
CC(=O)c1nn(CC(=O)N2[C@H](C(=O)Nc3cncc(Br)n3)C[C@@]3(C)C[C@@H]23)c2c(C)nc(-c3cnc(C)nc3)cc12	> 6.00
CC(=O)c1nn(CC(=O)N2[C@H](C(=O)NCCCN)C[C@@]3(C)C[C@@H]23)c2ccc(-c3cnc(C)nc3)cc12	< 5.00
CC(=O)c1nn(CC(=O)N2[C@H](C(=O)Nc3nc(Br)ccc3C)C[C@@]3(C)C[C@@H]23)c2c(C)cc(-c3cnc(C4(F)COC4)nc3)cc12	> 6.00
Cc1ncc(-c2ccc3c(c2)c(C(=O)NC(C)(C)C)nn3CC(=O)N2[C@H](C(=O)Nc3nc(Br)ccc3C)C[C@@]3(C)C[C@@H]23)cn1	< 5.00
Cc1ncc(-c2cc3c(C(C)O)nn(CC(=O)N4[C@H](C(=O)Nc5nc(Br)c(F)cc5C)C[C@@]5(C)C[C@@H]45)c3c(C)n2)cn1 (stereo partly specified)	> 6.00
CCCCCNC(=O)[C@@H]1C[C@@]2(C)C[C@H]2N1C(=O)Cn1nc(C(C)=O)c2cc(-c3cnc(C)nc3)ccc21	> 6.00
CC(=O)c1nn(CC(=O)N2[C@@H](C(=O)Nc3nc(Br)ccc3C)C[C@]3(C)C[C@H]23)c2ccc(-c3cnc(C)nc3)cc12	< 5.00
COc1cccc(CNC(=O)[C@@H]2C[C@@]3(C)C[C@H]3N2C(=O)Cn2nc(C(C)=O)c3cc(-c4cnc(C)nc4)cc(C)c32)c1	> 6.00
CC(=O)c1nn(CC(=O)N2[C@H](C(=O)NCc3ccccc3C)C[C@@]3(C)C[C@@H]23)c2c(C)cc(-c3cnc(C)nc3)cc12	> 6.00
C#CC(C)NC(=O)c1nn(CC(=O)N2[C@H](C(=O)Nc3nc(Br)ccc3C)C[C@@]3(C)C[C@@H]23)c2ccc(-c3cnc(C)nc3)cc12 (stereo partly specified)	> 6.00
CC(=O)c1nn(CC(=O)N2[C@H](C(=O)Nc3cncc(Br)n3)C[C@@]3(C)C[C@@H]23)c2cnc(-c3cnc(C)nc3)cc12	> 6.00
CC(=O)c1nn(CC(=O)N2[C@H](C(=O)Nc3nc(Br)ccc3C)C[C@@]3(CNCc4ccccc4F)C[C@@H]23)c2c(C)cc(-c3cnc(C)nc3)cc12	> 6.00
CC(=O)c1nn(CC(=O)N2[C@H](C(=O)Nc3nc(Br)ccc3C)C[C@@]3(CNC4=NCCO4)C[C@@H]23)c2cnc(-c3cnc(C)nc3)cc12	> 6.00
COc1ncc(-c2cc3c(C(C)=O)nn(CC(=O)N4[C@H](C(=O)Nc5nc(Br)ccc5C)C[C@@]5(C)C[C@@H]45)c3c(C)n2)cn1	> 6.00
CC(=O)c1nn(CC(=O)N2[C@H](C(=O)NCc3ccccc3F)C[C@@]3(C)C[C@@H]23)c2c(C)cc(-c3cnc(C)nc3)cc12	> 6.00
CC(=O)c1nn(CC(=O)N2[C@H](C(=O)Nc3nc(Br)ccc3C)C[C@@]3(CNC(=O)C(F)(F)F)C[C@@H]23)c2c(C)cc(-c3cnc(C)nc3)cc12	> 6.00
CC(=O)c1nn(CC(=O)N2[C@H](C(=O)NCc3ccc(C)cc3)C[C@@]3(C)C[C@@H]23)c2c(C)cc(-c3cnc(C)nc3)cc12	> 6.00
